Results: US8552035B2, “Phenanthrenone compounds, compositions and methods” (Pfizer Inc., priority 2008, dated 2013)

What was measured:
Type in all cases: in vivo
serum insulin = test: 28-day mouse side-effect model, serum insulin; settings: oral gavage 28 days; for ED50 at 28 days: female, Swiss Webster, read-out: Insulin (ED50 dose)
Protocol: (§1) 10-12 week old female Swiss Webster mice (Taconic, Germantown, N.Y., U.S.A.) weighing 27-29 grams are used in accordance with the guidelines of the Institutional Animal Care and Use Committee and in accordance with NIH guidelines on laboratory animal welfare. Mice are acclimated to the Pfizer animal facility for 3-7 days prior to being placed on study. Prednisolone and DAGR compounds are administered by oral gavage for a total of 28 days. Each treatment group generally contains 8-10 mice. To establish a dosing regimen for the studies, a pilot pharmacodynamic time course experiment is conducted to quantify TNFa repression after a single ED80 dose (determined from the acute LPS endotoxemia mouse model). […] DAGR compounds vary in their required frequency of doses.
(§2) Body weights are measured on the first and last day of each experiment. Blood samples are obtained after ˜3 weeks of dosing for steady-state pharmacokinetic analysis. To assess compound effects on LPS-induced TNF-a, all mice receive an intraperitoneal injection of LPS (Salmonella Typhosa, Sigma, St. Louis, L-7895) 2.5 hr after the last dose on day 28. Mice are sacrificed 90 min. after LPS administration. Serum samples are assayed for osteocalcin and TNFa using the Linco multiplex assay (St. Charles, Mo.) and Luminex 100 (Austin, Tex.). Samples are diluted 1:20 and the assay is run according to manufacturer's instructions. An osteocalcin standard is purchased separately from Biomedical Technologies Incorporated (Stoughton, Mass.). Serum insulin is measured to assess compound effects on insulin resistance. Insulin was measured using the UltraSensitive Mouse EIA kit from Alpco Diagnostics (Salem, N.H.) following the manufacturer's protocol.
(§3) ED50 and ED80 values are obtained for the various parameters using four-parameter logistic fits of data. For each experiment/dose group, outliers are detected by calculating the number of standard deviations each mouse's value was from the mean of their group and then dividing by the standard deviation of the group. The means and standard deviations used in this calculation omitted the value being examined so that, if it were an outlier, it would have no influence. If the value being examined is more than 2.5 standard deviations from the mean, it was not used in the rest of the calculations.
(§4) Percent inhibition values are then calculated for each animal using the means of the vehicle and 10 mpk prednisone control groups. The individual mouse percent inhibition values are then fit to a four-parameter logistic model using the area under curve mean for each group. Since all four parameters are estimated and the lower plateau is not fixed at 0% and the upper plateau was not fixed at 100%, the ED50 and ED80 values are calculated by using an inverse calibration formula for a response equal to 50% or 80%. The designation “nd” means not determined.

bone formation rate = test: 28-day mouse side-effect model, cortical bone histomorphometry (bone formation rate); settings: oral gavage 28 days, tibia cortical bone formation rate; for ED50 at 28 days: female, Swiss Webster, read-out: BFR (ED50 dose)
Protocol: as §1
During the in-life portion of each study, mice received two IP injections of the fluorochrome calcein (C-0875; Sigma-Aldrich; 20 mg/kg; 200 μL/mouse), dissolved in 2% sodium bicarbonate, on days 1 and 26 for bone histomorphometry measurements. Fluorochrome labels incorporate into the bone mineral and allow measurement of bone formation rate. During the tissue harvest, the left tibia is excised and cleaned for cortical histomorphometry measurements. After all skin and muscle are removed, tibiae are placed in 70% ethanol (4° C.) in the dark for a minimum of 24 hours.
Ground transverse sections are used for histomorphometric analysis of cortical bone^1. Bones are sectioned using a low speed saw (Isomet, Buehler, Lake Bluff, Ill.) equipped with a diamond wafer blade. The end of each tibia is removed proximal to tibia-fibula synostosis and a […] cross-section is cut. Using a roughened glass plate and a cork, sections are ground to […] until transparent and all labels distinguishable under a fluorescent microscope. Sections are dehydrated using the following solutions for a minimum of 2 minutes each: 1) 70% ethanol, 2) 95% ethanol, 3) 100% ethanol, 4) 50/50 ethanol/xylene, and 5) xylene (twice) (Sigma, St. Louis, 534056). Sections are mounted using Eukitt Quick Mounting Medium (Sigma, St. Louis, 03989) and cover-slipped. Using the Osteomeasure Bone Analysis Program (Decatur, Ga.), bone formation rate is calculated by tracing the 1st and 2nd fluorescent labels in addition to tracing the inner and outer perimeter of the bone. Bone formation rate is calculated by the following equation: (Interlabel Width/Label Interval)*(Labeled Perimeter/Bone Perimeter). At least 5 samples are measured from each treatment group in each study.
as §3, §4

LPS-induced TNFα = test: 28-day mouse side-effect model, LPS-induced serum TNFα suppression; settings: oral gavage 28 days, LPS challenge; for ED50: 672 h, read-out: TNFα Suppression (ED50 dose)
Protocol: as §1, §2, §3, §4

[1] = test system: Mouse collagen-induced arthritis; test: Therapeutic mouse collagen-induced arthritis (mCIA); settings: for ED50: 816 h, dosing day 34 to 49, read-out: Therapeutic mCIA (ED50 dose); for Therapeutic mCIA (ED80 dose): dosing day 34 to 49
Text: Mouse Collagen-induced arthritis is a commonly used chronic, preclinical model of rheumatoid arthritis in which joint swelling and bone destruction occur following immunization with type II collagen. Reduction of disease incidence and severity has been shown previously to be predictive of disease-modification and signs and symptoms mitigation, respectively, in a clinical setting.
In the therapeutic mCIA model, induction of disease incidence and severity was synchronized via LPS stimulation. Male DBA/J mice were immunized with 100 ug of bovine type II collagen (bCII) on day 0. All mice received an intraperitoneal injection of 20 μg of LPS on day 28 and disease was allowed to develop through day 34. At day 34, all mice had disease (incidence=100%) with an average severity score of seven. Dosing of compounds was initiated in the therapeutic mode on day 34 and continued through day 49. Different treatments were compared by measuring the decrease in incidence (i.e., resolution of disease) and the decrease in severity of paw swelling over time.
as §3, §4

osteocalcin = test: 28-day mouse side-effect model, serum osteocalcin suppression; settings: oral gavage 28 days; for ED50 at 28 days: female, Swiss Webster, read-out: Osteocalcin Suppression (ED50 dose)
Protocol: as §1, §2, §3, §4

SMILES	ED50 at 28 days (serum insulin) [mg/kg]	Insulin (ED80 dose) (serum insulin)	ED50 at 28 days (bone formation rate) [mg/kg]	BFR (ED80 dose) (bone formation rate)	ED50 (LPS-induced TNFα) [mg/kg]	TNFα Suppression (ED80 dose) (LPS-induced TNFα)	ED50 [1] [mg/kg]	Therapeutic mCIA (ED80 dose) [1]	ED50 at 28 days (osteocalcin) [mg/kg]	Osteocalcin Suppression (ED80 dose) (osteocalcin)
Cc1ncccc1NC(=O)c1ccc2c(c1)CC[C@@H]1C[C@@](O)(c3ccccn3)[C@](C)(O)C[C@@]21Cc1ccccc1 [Comparator C, (4bR,6R,7R,8aR)-4b-benzyl-6,7-dihydroxy-6-methyl-N-(2-methylpyridin-3-yl)-7-(pyridin-2-yl)-4b,5,6,7,8,8a,9,10-octahydrophenanthrene-2-carboxamide]	> 20	>20	3.72	7.88	3.08	9.87	0.8	2.9	3.68	>20
C[C@@]1(O)C[C@@]2(Cc3ccccc3)c3ccc(C(=O)NCc4cccnc4)cc3CC[C@@H]2C[C@@]1(O)c1ccccc1 [Comparator D, (4bR,6R,7R,8aR)-4b-benzyl-6,7-dihydroxy-6-methyl-7-phenyl-N-(pyridin-3-ylmethyl)-4b,5,6,7,8,8a,9,10-octahydrophenanthrene-2-carboxamide]	> 60	>60	35.9	>60	11.4	14.48			> 60	>60
Cc1ncccc1NC(=O)c1ccc2c(c1)CC[C@@H]1C[C@@](O)(C(F)(F)F)[C@](C)(O)C[C@@]21Cc1ccccc1 [Comparator E, (4bR,6R,7S,8aR)-4b-benzyl-6,7-dihydroxy-6-methyl-N-(2-methylpyridin-3-yl)-7-(trifluoromethyl)-4b,5,6,7,8,8a,9,10-octahydrophenanthrene-2-carboxamide]	> 1	>1	0.28	0.33	> 1	>1	0.13	1.15	0.78	>1
